Here are results for 1 compound from publication PMC7865627, “Small Molecule-Based Prodrug Targeting Prostate Specific Membrane Antigen for the Treatment of Prostate Cancer” (Cancers, 2021).

One experiment deals with T1, PSMA (Homo sapiens, UniProt Q04609).
T1 construct: expressed in transfected cells; host or cells: PC3pip cells (PC3 retrovirally transfected with PSMA), from Dr. Michel Sadelain, MSKCC
The experiment can be described thus: Competitive binding assay against 3H-ZJ24 on PC3pip cells. How it is done:
The assay was carried as previously reported by incubation PC3pip cells with different concentrations of drug conjugates in the presence of 10 nM N-[N-[(S)-1,3-dicarboxypropyl]carbamoyl]-S-[^3H]-methyl-L-cysteine (^3H-ZJ24) (GE Healthcare Life Sciences, Chicago, IL, USA). Radioactivity of cell pellet was counted by scintillation counter. The concentration required to inhibit 50% of binding was determined (IC50) by GraphPad Prism 3.0.

The subject of another experiment is orthotopic PC3pip tumors. The experiment in a line: Orthotopic PC3pip survival study. In kind it is in vivo, mouse. To be noted: 3860 nmol/kg (so in the source) i.v. every 4 days, five doses, n = 5. The protocol: Surgical orthotopic tumor implantation was performed as previously reported. Tumor growth/size was monitored using Siemens Acuson S2000 (Siemens AG. Munich, Germany) ultrasound scanner. When the tumors were at the appropriate size (5 mm diameter as measured by ultrasound, approximately 2 weeks) animals were given PSMA-1-VcMMAE, or PBS every 4 days with a total of five doses. Tumors were monitored every other day by ultrasound. Each group utilized five mice.

*1 amine or outer side, *2 acyl side, *3 side chain or, on linkers, in order; H or OH if unused. Where a SMILES comes first, the peptide text is derived from it. Bridges are numbered along the chain shown (N, C = ends). Roman numbers before positions name the chains, in order. [ ]: non-standard residue; d: D form. The star is where a group is joined. Hexanoyl(6-succinimido-3yl) = O=C1CC([*:1])C(=O)N1CCCCCC(=O)[*:2]; Dolaproine = CO[C@@H]([C@@H]1CCCN1)[C@@H](C)C(=O)O; Dil = CC[C@H](C)[C@H](NC)[C@@H](CC(=O)O)OC; γGlu = O=C(O)[C@H](CCC(=O)[*:2])N[*:1]; PABC = O=C(OCc1ccc(N[*:1])cc1)[*:2]; X2 = C[C@@H](N*)[C@@H](O)c1ccccc1; X1 = O=C(C1CCC(CN[*:1])CC1)[*:2]; Cit = NC(=O)NCCC[C@H](N)C(=O)O; NMeV = CN[C@H](C(=O)O)C(C)C; CO = O=C([*:1])[*:2]; Ahx = NCCCCCC(=O)O

T1 sequence (Q04609 whole entry): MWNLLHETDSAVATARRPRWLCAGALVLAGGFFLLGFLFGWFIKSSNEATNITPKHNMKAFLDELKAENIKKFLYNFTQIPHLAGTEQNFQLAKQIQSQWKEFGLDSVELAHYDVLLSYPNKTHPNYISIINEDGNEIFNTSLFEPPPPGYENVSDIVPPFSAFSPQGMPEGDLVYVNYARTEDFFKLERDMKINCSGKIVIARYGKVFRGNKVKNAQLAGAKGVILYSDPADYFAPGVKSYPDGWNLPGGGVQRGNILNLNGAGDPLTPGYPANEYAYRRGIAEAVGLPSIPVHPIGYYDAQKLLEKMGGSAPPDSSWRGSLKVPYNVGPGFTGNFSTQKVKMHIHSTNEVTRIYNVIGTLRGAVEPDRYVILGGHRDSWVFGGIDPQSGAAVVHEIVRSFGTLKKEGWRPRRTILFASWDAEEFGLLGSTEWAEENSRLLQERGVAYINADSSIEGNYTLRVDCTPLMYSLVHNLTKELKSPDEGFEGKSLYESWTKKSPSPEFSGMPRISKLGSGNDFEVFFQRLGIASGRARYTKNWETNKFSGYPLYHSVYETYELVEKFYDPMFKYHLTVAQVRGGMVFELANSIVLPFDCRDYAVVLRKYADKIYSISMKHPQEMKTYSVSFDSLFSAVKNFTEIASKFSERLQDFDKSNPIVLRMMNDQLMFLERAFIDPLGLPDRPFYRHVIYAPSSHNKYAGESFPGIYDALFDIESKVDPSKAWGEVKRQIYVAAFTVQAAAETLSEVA

The term IC50 denotes the concentration that inhibits the measured activity by half. Low readings indicate greater potency, high ones weaker potency. On PSMA, `CC[C@H](C)[C@@H]([C@@H](CC(=O)N1CCC[C@H]1[C@H](OC)[C@@H](C)C(=O)N[C@H](C)[C@@H](O)c1ccccc1)OC)N(C)C(=O)[C@@H](NC(=O)[C@H](C(C)C)N(C)C(=O)OCc1ccc(NC(=O)[C@H](CCCNC(N)=O)NC(=O)[C@@H](NC(=O)CCCCCN2C(=O)CC(SC[C@H](NC(=O)[C@@H](CCC(=O)O)NC(=O)[C@@H](CCC(=O)O)NC(=O)[C@@H](CCC(=O)O)NC(=O)CCCCCNC(=O)C3CCC(CNC(=O)CC[C@H](NC(=O)N[C@@H](CCC(=O)O)C(=O)O)C(=O)O)CC3)C(=O)NCCCCCC(=O)N[C@@H](CCCCN)C(N)=O)C2=O)C(C)C)cc1)C(C)C` (some centres unmarked) [PSMA-1-VcMMAE] (I: {Glu-CO-γGlu}-[X1][Ahx][dE][dE][dE]C[Ahx]K-NH2 / II: V[Cit][PABC][NMeV]V[Dil][Dolaproine]-X2; linker I:6-II:N via Hexanoyl(6-succinimido-3yl)) came in with an IC50 of 4.34 nM. In addition, the “tumor free mice, orthotopic PC3pip, 3860 nmol/kg” value with orthotopic PC3pip tumors is on record as “one”.
